Assay results: PubChem BioAssay AID192 (DTP/NCI, 2004)
Values joined by “and” are separate entries in the source; they are usually repeats but may differ in a detail not shown here. Identical values can stand only once. Toxic doses and inconclusive results are not listed.

Tested on: BDF1 mice, B16 melanoma ip, median survival T/C
Assay: NCI In Vivo Anticancer Drug Screen. Data for tumor model B16 Melanoma (intraperitoneal) in B6D2F1 (BDF1) mice
Details: endpoint: median survival time, higher = longer survival
Method in brief: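 Vehicle-treated animals serve as the reference (C); treated animals (T) are scored for survival or tumor size after tumor transplantation.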

[1] = dose: 25.0 mg/kg/injection, schedule: Q01DX009 (ip), vehicle: saline with Tween-80
[2] = dose: 50.0 mg/kg/injection, schedule: Q01DX009 (ip), vehicle: saline with Tween-80
[3] = dose: 100.0 mg/kg/injection, schedule: Q01DX009 (ip), vehicle: saline with Tween-80
[4] = dose: 200.0 mg/kg/injection, schedule: Q01DX009 (ip), vehicle: saline with Tween-80
[5] = dose: 12.5 mg/kg/injection, schedule: Q01DX009 (ip), vehicle: Klucel (hydroxypropylcellulose) (HPC)
[6] = dose: 25.0 mg/kg/injection, schedule: Q01DX009 (ip), vehicle: Klucel (hydroxypropylcellulose) (HPC)
[7] = dose: 100.0 mg/kg/injection, schedule: Q01DX009 (ip), vehicle: Klucel (hydroxypropylcellulose) (HPC)
[8] = dose: 200.0 mg/kg/injection, schedule: Q01DX009 (ip), vehicle: Klucel (hydroxypropylcellulose) (HPC)
[9] = dose: 0.78 mg/kg/injection, schedule: Q01DX009 (ip), vehicle: saline with Tween-80
[10] = dose: 1.56 mg/kg/injection, schedule: Q01DX009 (ip), vehicle: saline with Tween-80
[11] = dose: 6.25 mg/kg/injection, schedule: Q01DX009 (ip), vehicle: saline with Tween-80
[12] = dose: 12.5 mg/kg/injection, schedule: Q01DX009 (ip), vehicle: saline with Tween-80
[13] = dose: 400.0 mg/kg/injection, schedule: Q01DX009 (ip), vehicle: saline with Tween-80
[14] = dose: 1.5 mg/kg/injection, schedule: Q01DX009 (ip), vehicle: saline
[15] = dose: 3.0 mg/kg/injection, schedule: Q01DX009 (ip), vehicle: saline
[16] = dose: 6.0 mg/kg/injection, schedule: Q01DX009 (ip), vehicle: saline
[17] = dose: 400.0 mg/kg/injection, schedule: Q01DX009 (ip), vehicle: Klucel (hydroxypropylcellulose) (HPC)
[18] = dose: 100.0 mg/kg/injection, schedule: Q01DX009 (ip), vehicle: saline
[19] = dose: 200.0 mg/kg/injection, schedule: Q01DX009 (ip), vehicle: saline
[20] = dose: 50.0 mg/kg/injection, schedule: Q01DX009 (ip), vehicle: Klucel (hydroxypropylcellulose) (HPC)

Compound: COc1cc(C)c2c(=O)c3c(oc2c1)C(=O)c1c(O)c(OC)cc(O)c1C3=O
- T/C [1]: 105 % of control
- T/C [2]: 101 % of control
- T/C [3]: 96 % of control
- T/C [4]: 100 % of control

Compound: Nc1nccc2c1ncn2C1OC(CO)C(O)C1O (stereo unspecified)
- T/C (dose: 4.6 mg/kg/injection, schedule: Q03HX024 (ip), vehicle: saline with Tween-80): 90 % of control and 109 % of control
- T/C (dose: 9.3 mg/kg/injection, schedule: Q03HX024 (ip), vehicle: saline with Tween-80): 94 % of control and 117 % of control
- T/C (dose: 18.7 mg/kg/injection, schedule: Q03HX024 (ip), vehicle: saline with Tween-80): 98 % of control
- T/C (dose: 37.5 mg/kg/injection, schedule: Q03HX024 (ip), vehicle: saline with Tween-80): 94 % of control

Compound: O=C1C=CC(=O)c2c(O)c(CO)c(CO)c(O)c21
- T/C (dose: 0.39 mg/kg/injection, schedule: Q01DX009 (ip), vehicle: Klucel (hydroxypropylcellulose) (HPC)): 98 % of control
- T/C (dose: 0.78 mg/kg/injection, schedule: Q01DX009 (ip), vehicle: Klucel (hydroxypropylcellulose) (HPC)): 89 % of control
- T/C (dose: 1.56 mg/kg/injection, schedule: Q01DX009 (ip), vehicle: Klucel (hydroxypropylcellulose) (HPC)): 87 % of control

Compound: CC1(C)Oc2c(ccc(O)c2CN2CCOCC2)C2=C1CCCC2
- T/C (dose: 64.0 mg/kg/injection, schedule: Q01DX009 (ip), vehicle: Klucel (hydroxypropylcellulose) (HPC)): 96 % of control
- T/C (dose: 128.0 mg/kg/injection, schedule: Q01DX009 (ip), vehicle: Klucel (hydroxypropylcellulose) (HPC)): 96 % of control
- T/C (dose: 256.0 mg/kg/injection, schedule: Q01DX009 (ip), vehicle: Klucel (hydroxypropylcellulose) (HPC)): 101 % of control

Compound: CC1(C)NC(=O)C(/C=C/c2ccccc2)O1 (stereo unspecified)
- T/C (dose: 6.25 mg/kg/injection, schedule: Q01DX009 (ip), vehicle: Klucel (hydroxypropylcellulose) (HPC)): 96 % of control
- T/C [5]: 109 % of control
- T/C [6]: 121 % of control
- T/C [7]: 112 % of control
- T/C [8]: 86 % of control

Compound: C[CH2][Sn]1([CH2]C)[O]OC(c2ccccc2)[O]1 (stereo unspecified)
- T/C [9]: 106 % of control
- T/C [10]: 105 % of control and 111 % of control
- T/C (dose: 3.12 mg/kg/injection, schedule: Q01DX009 (ip), vehicle: saline with Tween-80): 109 % of control and 112 % of control
- T/C [11]: 113 % of control and 116 % of control
- T/C [12]: 101 % of control and 117 % of control

Compound: COc1ccc(C2=C(c3ccccc3)C(c3ccccc3)=C(c3ccc(OC)cc3)C2=O)cc1
- T/C [2]: 94 % of control
- T/C [3]: 95 % of control
- T/C [4]: 95 % of control
- T/C [13]: 94 % of control

Compound: O=C(COc1ccc(Cl)cc1)Nc1cccc(C(F)(F)F)c1
- T/C (dose: 5.0 mg/kg/injection, schedule: Q01DX009 (ip), vehicle: Klucel (hydroxypropylcellulose) (HPC)): 117 % of control
- T/C (dose: 9.4 mg/kg/injection, schedule: Q01DX009 (ip), vehicle: saline with Tween-80): 93 % of control
- T/C (dose: 10.0 mg/kg/injection, schedule: Q01DX009 (ip), vehicle: Klucel (hydroxypropylcellulose) (HPC)): 101 % of control
- T/C (dose: 37.5 mg/kg/injection, schedule: Q01DX009 (ip), vehicle: saline with Tween-80): 90 % of control and 91 % of control

Compound: [Cl][Pt+2][Cl].[NH-]CC1(C[NH-])CCCCC1
- T/C [14]: 190 % of control
- T/C [15]: 208 % of control
- T/C [16]: 208 % of control

Compound: CC(=O)O[C@H]1C(=O)O[C@@H]2C[C@H]3C(C)=CC(=O)[C@@H](O)[C@]3(C)[C@H]3[C@@]4(O)OC[C@]32[C@@H]1[C@@H](C)[C@H]4O
- T/C (dose: 0.39 mg/kg/injection, schedule: Q01DX009 (ip), vehicle: saline with Tween-80): 101 % of control
- T/C [9]: 105 % of control
- T/C (dose: 1.5 mg/kg/injection, schedule: Q01DX009 (ip), vehicle: Klucel (hydroxypropylcellulose) (HPC)): 112 % of control
- T/C [14]: 112 % of control
- T/C [10]: 96 % of control
- T/C (dose: 3.13 mg/kg/injection, schedule: Q01DX009 (ip), vehicle: saline with Tween-80): 107 % of control
- T/C [11]: 107 % of control
- T/C (dose: 12.0 mg/kg/injection, schedule: Q01DX009 (ip), vehicle: saline): 164 % of control
- T/C [12]: 118 % of control

Compound: O=C(Nc1ccc(F)cc1)NC1CCCCC1
- T/C [7]: 87 % of control
- T/C [8]: 100 % of control

Compound: N=C(N)c1ccc(N=NNc2ccc(C(=N)N)cc2)cc1
- T/C [12]: 101 % of control
- T/C [1]: 112 % of control
- T/C [2]: 114 % of control

Compound: CCN(CC)CCNc1ccc([N+](=O)[O-])cc1[N+](=O)[O-]
- T/C [1]: 100 % of control
- T/C [2]: 113 % of control
- T/C (dose: 50.0 mg/kg/injection, schedule: Q04DX003 (ip), vehicle: saline with Tween-80): 102 % of control
- T/C [3]: 100 % of control
- T/C (dose: 100.0 mg/kg/injection, schedule: Q04DX003 (ip), vehicle: saline with Tween-80): 100 % of control

Compound: Nc1nc(-c2ccccc2)c(Br)c(=O)[nH]1
- T/C [13]: 150 % of control

Compound: CCC/C=C/C=C\C(=O)O[C@@H]1[C@@H](C)[C@]2(O)[C@@H]3C=C(C)C(=O)[C@H]3CC(COC(C)=O)=C[C@H]2[C@@H]2C(C)(C)[C@]12OC(C)=O
- T/C (dose: 0.75 mg/kg/injection, schedule: Q01DX009 (ip), vehicle: saline + alcohol): 107 % of control
- T/C (dose: 1.5 mg/kg/injection, schedule: Q01DX009 (ip), vehicle: saline + alcohol): 105 % of control
- T/C (dose: 3.0 mg/kg/injection, schedule: Q01DX009 (ip), vehicle: saline + alcohol): 113 % of control
- T/C (dose: 6.0 mg/kg/injection, schedule: Q01DX009 (ip), vehicle: saline + alcohol): 113 % of control

Compound: CCOC(=O)c1ccc(Nc2sc(C(=O)c3ccc(Br)cc3)c(N)c2C#N)cc1
- T/C [11]: 92 % of control
- T/C [12]: 87 % of control
- T/C [1]: 88 % of control
- T/C [2]: 86 % of control

Compound: COC(=O)C(CSCc1ccccc1)NC(=O)CCNC(=O)OCc1ccccc1 (stereo unspecified)
- T/C (dose: 25.0 mg/kg/injection, schedule: Q01DX009 (ip), vehicle: other): 107 % of control
- T/C (dose: 50.0 mg/kg/injection, schedule: Q01DX009 (ip), vehicle: other): 92 % of control
- T/C (dose: 100.0 mg/kg/injection, schedule: Q01DX009 (ip), vehicle: other): 97 % of control
- T/C (dose: 200.0 mg/kg/injection, schedule: Q01DX009 (ip), vehicle: other): 93 % of control

Compound: O=C(c1ccccc1)c1cc([N+](=O)[O-])cc([N+](=O)[O-])c1
- T/C [3]: 97 % of control
- T/C [4]: 91 % of control
- T/C [13]: 89 % of control

Compound: Cc1ccc(NC(=O)C(Cl)(Cl)Cl)cc1C
- T/C [7]: 96 % of control
- T/C [8]: 96 % of control
- T/C [17]: 96 % of control

Compound: O=[N+]([O-])c1cccc2c(S(=O)(=O)O)cccc12
- T/C (dose: 50.0 mg/kg/injection, schedule: Q01DX009 (ip), vehicle: saline): 113 % of control
- T/C [18]: 110 % of control
- T/C [19]: 91 % of control

Compound: O=C1c2ccccc2C(Cl)=C(Cl)C1(Cl)Cl
- T/C (dose: 12.5 mg/kg/injection, schedule: Q04DX003 (ip), vehicle: Klucel (hydroxypropylcellulose) (HPC)): 87 % of control
- T/C (dose: 25.0 mg/kg/injection, schedule: Q04DX003 (ip), vehicle: Klucel (hydroxypropylcellulose) (HPC)): 92 % of control

Compound: O=C(O)CCCC1CCCCC1.[Cu+2]
- T/C [11]: 100 % of control
- T/C [12]: 97 % of control

Compound: CC(C)N(C(=O)Nc1ccccc1Cl)c1ccccc1
- T/C [7]: 89 % of control
- T/C [8]: 91 % of control
- T/C [17]: 92 % of control

Compound: O=C1C(N2CCOCC2)=C(N2CC2)C(=O)C(N2CCOCC2)=C1N1CC1
- T/C (dose: 0.75 mg/kg/injection, schedule: Q01DX009 (ip), vehicle: saline): 118 % of control
- T/C [14]: 124 % of control
- T/C [15]: 120 % of control
- T/C [16]: 106 % of control

Compound: CCCCCCC/C=C/C(=O)OC1C(OC2C(OC(CCCCCCC)CC(=O)OC(CCCCCCC)CC(=O)O)OC(C)C(O)C2O)OC(C)C(O)C1O (stereo unspecified)
- T/C [5]: 90 % of control
- T/C [6]: 104 % of control
- T/C [20]: 92 % of control

Compound: Cc1cc2ncn(CO)c2cc1C
- T/C [3]: 102 % of control
- T/C [4]: 97 % of control
- T/C [13]: 97 % of control

Compound: Oc1nc(/N=C2/N=c3ccc(Cl)cc3=N2)[nH]c1O
- T/C [5]: 86 % of control
- T/C [6]: 93 % of control
- T/C [20]: 86 % of control

Compound: NCC(=O)c1ccc(O)c(O)c1
- T/C [18]: 100 % of control
- T/C [19]: 110 % of control
- T/C (dose: 400.0 mg/kg/injection, schedule: Q01DX009 (ip), vehicle: saline): 120 % of control

Compound: CCN(CC)CCCCNc1ccc(NCCCCN(CC)CC)c2c1C(=O)c1ccccc1C2=O
- T/C [1]: 105 % of control
- T/C [2]: 99 % of control
